Converted amounts (≈) assume the structure as drawn. *1 amine or outer side, *2 acyl side, *3 side chain or, on linkers, in order; H or OH if unused. Where a SMILES comes first, the peptide text is derived from it. [ ]: non-standard residue; d: D form. The star is where a group is joined. X1 = O=C([C@H](CCCCNCS(=O)(=O)O)N[*:1])[*:2]; Octanoyl = CCCCCCCC(=O)*
Tests used:
[1] = test system: P. aeruginosa strain ATCC 27853; assay type: cell-based; details: ATCC 27853
Method in brief: (§1)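 Broth microdilution per NCCLS M7-T2: final peptide levels 0.25 to 256 μg/ml (twofold steps), inoculum 1-5×10^5 CFUs/ml in full-strength Mueller Hinton broth. MIC read as lowest concentration leaving the well clear after 16-20 hours at 37° C.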

[2] = test system: E. coli ATCC strain 25922; test: Minimal Inhibitory Concentration, microtiter broth dilution; assay type: cell-based; details: ATCC strain 25922
Method in brief: as §1

[3] = test system: C. albicans; assay type: cell-based
Method in brief: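 Broth microdilution: mid-log organisms at 1-5×10^5 CFU/ml in Mueller Hinton broth exposed to 2-fold peptide series (0.25–256 μg/ml final). After 16-20 h at 37° C, MIC read as the lowest concentration leaving the well clear.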

[4] = test system: S. mutans; test: anaerobic anti-microbial susceptibility test (MIC); assay type: cell-based; parameters: unit not given here; details: 24-48 hours
[5] = test system: A. viscosus; test: anaerobic anti-microbial susceptibility test (MIC); assay type: cell-based; details: 24-48 hours
[6] = test system: S. aureus ATCC 29213; assay type: cell-based; details: ATCC 29213
[7] = test system: C. albicans ATCC 90028; assay type: cell-based; details: ATCC 90028
Description: The procedure for the anti-bacterial assay is based upon the guidelines of the National Committee for Clinical Laboratory Standards, Document M7-T2, Volume 8, No. 8, 1988, which document is entirely incorporated herein by reference.
Stock solutions of peptides, with and without the appropriate substitutions, were prepared at a concentration of 512 μg/ml in sterile deionized distilled water and stored at −70° C.
The stock peptide solution was diluted in serial dilutions (1:2) down the wells of a microtiter plate so that the final concentrations of peptides in the wells were 0.25, 0.50, 1, 2, 4, 8, 16, 32, 64, 128 and 256 μg/ml. 1-5×10^5 CFUs/ml of either S. aureus ATCC 25923, E. coli ATCC 25922, P. aeruginosa ATCC 27853, or C. albicans, were added to the wells in full strength Mueller Hinton broth (BBL 11443) from a mid-log culture. The inoculum was standardized spectrophotometrically at 600 nm and was verified by colony counts. The plates were incubated for 16-20 hours at 37° C., and the minimal inhibitory concentration (MIC) for each peptide was determined. Minimal inhibitory concentration is defined as the lowest concentration of peptide which produces a clear well in the microtiter plate. The minimal inhibitory concentration of each of the peptides with and/or without the appropriate substitutions is given in Table I below.
(§2) The in vitro anti-microbial activities of the methane sulfonate derivatives were determined according to the methods described in Examples 1 and 2. The activities against ATCC strains of S. aureus, E. coli, P. aeruginosa, and C. albicans, and the hemolysis of red blood cells were compared to the parent compound (Table IV). The activities for Compound 843 (Oct-SEQ ID NO:143) methane sulfonate against clinical strains of P. aeruginosa isolated from cystic fibrosis patients were compared to the parent compound (Table V). The activity for Compound 469 (Oct-SEQ ID NO:27) methane sulfonate against P. gingivalis was compared to the parent compound (Table VI).

[8] = test system: red blood cells; test: hemolysis of red blood cells; assay type: cell-based
Description: as §2

[9] = test system: P. gingivalis

Structure (SMILES) | MIC P. aeruginosa ATCC 27853 [1] | Minimal Inhibitory Concentration P [1] | MIC E. coli ATCC 25922 [2] | Minimal Inhibitory Concentration E [2] | Minimal Inhibitory Concentration CA [3] | MIC S. mutans [4] | MIC A. viscos [5] | MIC S. aureus ATCC 29213 [6] | MIC C. albicans ATCC 90028 [7] | % Hemolysis (500 μg/ml) [8] | MIC P. gingivalis ATTC 33277 [9] | MIC P. gingivalis (strain) 9-14K-1 ([9]; anaerobic, 24-48 hours) | MIC P. gingivalis (strain) 381 ([9]; anaerobic, 24-48 hours) | MIC P. gingivalis (strain) 450 ([9]; anaerobic, 24-48 hours) | MIC P. gingivalis (strain) A7A1-28 ([9]; anaerobic, 24-48 hours) | MIC P. gingivalis (strain) FAY-19M-1 ([9]; anaerobic, 24-48 hours)
CCCCCCCC(=O)N[C@@H](CCCCN)C(=O)N[C@H](C(=O)N[C@@H](C)C(=O)NCC(=O)N[C@@H](CCCCN)C(=O)N[C@H](C(=O)N[C@@H](C)C(=O)N[C@@H](CCCCN)C(=O)N[C@H](C(=O)N[C@@H](C)C(=O)NCC(=O)N[C@@H](CCCCN)C(=O)N[C@H](C(=O)N[C@@H](C)C(=O)N[C@@H](CCCCN)C(=O)N[C@H](C(=O)N[C@@H](C)C(=O)NCC(=O)N[C@@H](CCCCN)C(=O)N[C@H](C(=O)N[C@@H](C)C(N)=O)[C@@H](C)CC)[C@@H](C)CC)[C@@H](C)CC)[C@@H](C)CC)[C@@H](C)CC)[C@@H](C)CC [Oct-(SEQ ID NO: 27)-NH2, (Oct-KIAGKIA)3-NH2)] (Octanoyl-KIAGKIAKIAGKIAKIAGKIA-NH2) | 4 to 8 µg/mL | 4 µg/mL | 4 µg/mL (≈ 1.83 µM) | 2 µg/mL | 16 µg/mL | 16 | 16 μl/ml | 2 µg/mL (≈ 0.914 µM) | 64 µg/mL (≈ 29.2 µM) | 100% | 4 µg/mL (≈ 1.83 µM) | 4 μl/ml | 16 μl/ml | 16 μl/ml | 4 μl/ml | 4 μl/ml
CCCCCCCC(=O)N[C@@H](CCCCNCS(=O)(=O)O)C(=O)N[C@H](C(=O)N[C@@H](C)C(=O)NCC(=O)N[C@@H](CCCCNCS(=O)(=O)O)C(=O)N[C@H](C(=O)N[C@@H](C)C(=O)N[C@@H](CCCCNCS(=O)(=O)O)C(=O)N[C@H](C(=O)N[C@@H](C)C(=O)NCC(=O)N[C@@H](CCCCNCS(=O)(=O)O)C(=O)N[C@H](C(=O)N[C@@H](C)C(=O)N[C@@H](CCCCNCS(=O)(=O)O)C(=O)N[C@H](C(=O)N[C@@H](C)C(=O)NCC(=O)N[C@@H](CCCCNCS(=O)(=O)O)C(=O)N[C@H](C(=O)N[C@@H](C)C(N)=O)[C@@H](C)CC)[C@@H](C)CC)[C@@H](C)CC)[C@@H](C)CC)[C@@H](C)CC)[C@@H](C)CC [Compound 1662] (Octanoyl-[X1]IAG[X1]IA[X1]IAG[X1]IA[X1]IAG[X1]IA-NH2) | 32 µg/mL (≈ 11.6 µM) |  | 8 µg/mL (≈ 2.91 µM) |  |  |  |  | 4 µg/mL (≈ 1.45 µM) | 64 µg/mL (≈ 23.2 µM) |  | 8 µg/mL (≈ 2.91 µM) |  |  |  |  | 
